Data set [1] deals with C-fibers of rabbit vagus nerve. The experiment in a line: Extracellular recording of compound action potentials (APc), desheathed vagus nerve, C-fibers. Also noted: species or system New Zealand white rabbit. As to conditions: for inhibition at 0.5 µM: 1 h, mean ± SEM; for inhibition at 0.5 µM / activity at 0.5 µM: 0.5 μM VTD; for activity at 0.5 µM: read-out: Amplitude of single APc elevation relative to amplitude at beginning of VTD exposure. The method, then: (§1) Adult male New Zealand white rabbits (3±0.5 kg) were pretreated intramuscularly with a mixture of ketamine (200 mg), xylazine (20 mg) and atropine (0.4 mg) for sedation. Ten minutes after this treatment, the animals were anesthetized with diethyl ether. After cessation of respiration, a longitudinal skin incision was made, and the cervical portion of both vagus nerves was dissected. The vagus nerves were temporarily stored at room temperature (22° C.) in a beaker containing modified HEPES Liley (HL) solution stirred constantly by aeration with a mixture of 95% oxygen and 5% carbon dioxide.
(§2) The modified HL solution used for bathing the nerve and subsequent drug perfusion consisted of (in mM): NaCl, 118.0; KCl, 5.0; CaCl2 2H2 0, 2.0; MgCl2 6H2 0, 1.0; α-D(+)-glucose, 11.0; NaHC03, 25.0; and N-2-hydroxy-ethylpiperazine-N-2-ethanesulfonic acid (HEPES) buffer, 5.0 mM. The pH was adjusted to 7.4±0.05 by addition of 1 N NaOH. The perfusion solution was bubbled with a gas mixture of 95% oxygen and 5% carbon dioxide at a vigorous rate just before flowing onto the nerve. The pH was stabilized by the HEPES buffer and maintained at 7.4.
(§3) VTD free base (no. V-5754, lot 58F-7828, Sigma, St. Louis, Mo.) was stored in a desiccator below 0° C. and was used to prepare a 2 mM stock solution in dimethyl sulfoxide [DMSO], Fisher Scientific, lot 861316), which also was stored at below 0° C. VTD, a steroidal alkaloid (FIG. 2A) that is produced by certain lilies, has a solubility limited to approximately 10^-3 M in aqueous slat solutions [Kupchan and By, "The Veratrum Group," in Alkaloids, Vol. 10, Manske, R.H.F. (ed.), New York, Academic Press (1968), pp. 193-285]. The stock VTD solution was diluted to final concentrations of 0.2-10 μM by the addition of HL. The maximum equivalent content of DMSO is 0.5%, and in three control experiments we detected no change in electrophysiologic behavior with 1% DMSO.
The nerves were cleaned and desheathed by microdissection before mounting in an airtight chamber (FIG. 2B) [Gissen et al., Anesthesiology 53:467-474 (1980)]. Petroleum jelly (White Petrolatum, Denison Laboratories) seals separated a central, 11-mm length of the nerve from the lateral pools, used for stimulating and recording with electrodes made of platinum wire. The central section of the chamber (volume 0.25 ml) was perfused with HL solution at 0.5 ml.min.^-1. The lateral pools containing the moistened ends of the nerves adsorbed to the electrodes were filled with paraffin oil. The APc s were propagated over 21 mm, from the stimulating to the recording electrodes, with the proximal recording electrodc located 4.5 mm from the edge of the central, drug exposure chamber. Thus, measured APc s were conducted in nerve exposed to drug for half of the conduction pathway, and had been conducting through drug-free medium over a distance containing at least two or three nodes of Ranvier (in the fastest-conducting fibers), before reaching the recording electrodes.
The signal from the nerve was amplified 50 times (model AK 475 operational amplifier, Metametrics, Carlisle, Mass.) and passed to the oscilloscope preamplifiers (model 5A 22N, Tektronix). The preparation was not considered acceptable unless the APc signals from the nerve exceeded 1.5 mV for A-fibers, 0.5 mV for B-fibers, and 0.3 mV for C-fibers.
Each nerve was exposed to only one VTD concentration, and each concentration was tested in four or five separate nerves, except in tie sheathed nerves, for which only two nerves were used. The temperature was 20°-22° C.
The standard protocol used for testing the action of VTD was to record the APc elevations in control HL solution for 30-60 min. before adding VTD; for 60-75 min. during VTD application; and for 60-75 min. after replacement with VTD-free HL. […]

Data set [2] relates to C-fibers of rabbit vagus nerve. The experiment in a line: Sucrose-gap recording in the veratrinized region, C-fibers. Further details: species or system New Zealand white rabbit. The method, then: as §1, §2, §3
Nerves were desheathed and mounted in an acrylic sucrose-gap chamber (FIG. 2C). We used a method after that described by Stampfli [Stampfli, R., Experientia 10:508-509 (1954); see also Rando et al., Mol. Pharmacol. 29:467-477 (1986)]. […] In contrast to the extracellular chamber described above, which measured APc in a drug-free segment after they had propagated through a VTD solution, the sucrose gap measured the behavior of the nerve membrane directly exposed to drug, the "veratrinized" nerve.
APc and the CRP were recorded with the same amplifier used for extracellular recording (see above), but passed both to the DC-coupled input of the storage oscilloscope (for APc) and to a strip-chart recorder (for CRP) (model 8376-20, Cole-Palmer). […]

The conditions of data set [3]: aqueous slat solutions; limited to approximately; cited from earlier work.
Data set [4] is described as follows: Toxic signs (salivation) in rats after sciatic nerve injection. The data set is classed as in vivo, Male Sprague-Dawley rats. As to conditions: for fraction salivating: 0.1 ml. The method, then: Male Sprague-Dawley rats (200-250 g) were divided into 4 groups of 10 each. 0.1 ml of VTD alone at 0.2, 0.5 or 0.7 mM or vehicle (saline) was injected at the depression between the femoral head and the hip. The same animals were injected with VTD with epinephrine (EPI, 1:200,000) one week later, using the previously uninjected leg. Motor and sensory functions were rated by the respective monitoring of toe curling and/or foot dragging, and by testing the nocifensive withdrawal reflex to pinch of the foot pad of the injected hindlimb. Saline alone affected neither function.

We go through one molecule from patent US5288723A, “A composition and a method of using veratridine and epinephrine as a local anesthetic” (priority 1991, dated 1994).

Entries after “also recorded” stand apart in the source; their conditions may differ. Like-named read-outs stand apart in the source and are kept apart here.

For the molecule `COc1ccc(C(=O)OC2CCC3(C)C4CCC5C6(O)CC(O)C7(O)C(CN8CC(C)CCC8C7(C)O)C6(O)CC53OC24O)cc1OC` (centres unmarked) [VTD, veratridine], the “Use-dependent reduction of APc by VTD, C-fibers” value in data set [1] (0-2.0 μM (FIG. 7C), at relatively low frequencies) was “diminished most; also recorded: greatest for the C-fiber component”. Further, in data set [1] (2 μM VTD, 5 Hz, second through tenth APc, 15-20 min. exposure), the “Use-dependent inhibition and slowing of C-fiber APc” value was “slowed conduction and reduced amplitude”. For the same molecule, in data set [1] (C-fibers, 0.5 μM, 60 min. in VTD, P<0.005), the “Single-stimulus APc after VTD compared with no-VTD controls” value is recorded as “significant enhancement”. In data set [1] (C-fibers, 2 μM VTD, 5 Hz (FIG. 6B)), the “Longer latency of the second wave vs the first wave” value is given as “about 20%”. The “Reversal of use-dependent depression by washing” value in data set [1] (C-fibers, VTD-free HL wash) is recorded as “partial reversal”. Moreover, the “Recovery time of APc after stimulation ceased” value in data set [1] (C-fibers, sometimes as long as, depending on VTD concentration) was in the range of 1 to 2 min. In addition, the inhibition at 0.5 µM was 54.6 ± 3.8% in data set [1] (Oryctolagus cuniculus, C-fibers, 10 Hz, after 60 min. in VTD, P < 0.001 vs control, read-out: Percent inhibition of the tenth APc in a train compared to the first, VTD) and 34.6 ± 3.8% in data set [1] (Oryctolagus cuniculus, C-fibers, 10 Hz, after 60 min. wash, read-out: Percent inhibition of the tenth APc in a train compared to the first, HL (Wash)). The activity at 0.5 µM in data set [1] (Oryctolagus cuniculus, C-fibers, during VTD exposure) turned out to be 111 ± 5%; in data set [1] (Oryctolagus cuniculus, C-fibers, wash period), 133 ± 15%. Further, in data set [1] (Oryctolagus cuniculus, 0.2 μM VTD, 10 Hz, after about 1 h of wash-out, read-out: C-fiber use-dependent inhibition after VTD wash-out), the inhibition at 0.2 µM amounted to 22%. For the same molecule, the “C-fiber elevation after addition of VTD” value in data set [2] (0.5 μm VTD, single stimulus) is “unaffected”. For the same molecule, the “Time for development of VTD-induced depolarization (VID) after stimulation” value in data set [2] (0.5 μm VTD, within about 100 ms) is listed as at most 100 ms. For the same molecule, in data set [2] (after 1 hr in 2.0 μm VTD), the “Decay halftime of VTD-induced depolarization (VID)” value lay within 3 to 4 s. For the same molecule, the “Primary C-fiber elevations during cumulative VID” value in data set [2] (repetitive stimulation) is listed as “much smaller than were the elevations induced by single stimuli; also recorded: selectively reduced”. For the same molecule, the Solubility result in data set [3] is “approximately 10^-3 M”. For the same molecule, the “Toxic signs, including profuse salivation” value in data set [4] (0.5 and 0.7 mM VTD alone) was 14/20. The fraction salivating in data set [4] ([VTD] 0.2 mM) is on record as 0/10; in data set [4] ([VTD] 0.5 mM) it was 4/10; in data set [4] ([VTD] 0.7 mM), 10/10.

The inhibition is the drop in the measured response relative to a control, in per cent.
